Measured values from PubChem BioAssay AID1963832 (Molecular Pharmacology Branch, DTP, NCI, 2024).

System: 885724-159-R-J1-PDC complex spheroid viability
Test: Anticancer human tumor 885724-159-R-J1-PDC patient-derived pancreatic adenocarcinoma cell line growth inhibition [POLQ]
Details: for IC50: curve of first compound; for viability, T/C: stronger effect = lower value
Protocol: Multicellular complex tumor spheroid response to Polymerase (POL) inhibitors (novobiocin, ART-558, RP6685) in combination with a variety of drugs and investigational agents in selected tumor cell lines
The POL inhibitors (novobiocin, ART-558, and RP6685) were evaluated both individually and in combination with standard of care and investigational anticancer small molecules within a complex spheroid model of solid tumors. . Complex spheroids include a stromal component modeled by human endothelial cells (HUVEC) and fibroblasts modeled by human mesenchymal stem cells (MSCs). The concentration ranges selected for each drug and investigational agent were based upon clinically achievable concentrations if the clinical Cmax of the agent was known.
Compounds. The drugs and investigational agents: novobiocin (NSC847541), ART-558 (NSC835418), RP-6685 (NSC848927), peposertib (NSC802822), ceralasertib (NSC780249), elimusertib (NSC800525), camonsertib (NSC841442), AZD-1390 (NSC803789), olaparib (NSC753686), talazoparib (NSC767125), rucaparib (NSC756644), sotorasib (NSC818433), MRTX-1133 (NSC836407), SN-38 (NSC673596), topotecan (NSC609699), epotoside (NSC141540), doxorubicin (NSC123127), gemcitabine (NSC613327), 5-fluorouracil (NSC19893), paclitaxel (NSC125973), vemurafenib (NSC761431), MSA-2 (NSC828583), SN-011 (NSC837082), adavosertib (NSC754352), prexasertib (NSC758257), carboplatin (NSC241240) and oxaliplatin (NSC266046), were obtained from the National Cancer Institute (NCI) Developmental Therapeutics Program Chemical Repository (21). The FDA-approved anticancer drug set is available from the Developmental Therapeutics Program at https://dtp.cancer.gov/organization/dscb/obtaining/. […] The stock solutions were prepared in dimethyl sulfoxide (DMSO, Sigma-Aldrich, St. Louis, MO, cat. D2650), except for the platinum compounds which were prepared in saline (Quality Biological, Gaithersburg, MD, cat. 114-055-101), at 800-fold the tested concentration and stored at -70 degrees C prior to their use. All drugs and investigational agents were tested over a range starting from a high concentration at or near the clinical Cmax and decreasing in half-log increments. If the clinical Cmax for an agent had not been determined, the highest concentration tested was 10 microM, except for SN-38, which was tested at a high concentration of 1 microM.
Cell Culture. All cells were maintained in an incubator at 37 degrees C and 5% CO2 with 95% humidity. The PDC lines were cultured according to standard operating procedures established by the NCI PDMR (https://pdmr.cancer.gov). Table 3 of the manuscript, lists the cell lines along with the number of the three cell types plated to form the mct-spheroids and media for tumor cell growth. After thawing, all PDC lines, except 997537-175-T-J1-PDC and 415267-285-R-J2-PDC, were cultured in Matrigel-coated flasks prepared with a working solution of 1X Ham's F-12 nutrient mix, without supplementation (Thermo Fisher Scientific, cat. 11765054), 100 U/mL penicillin-streptomycin (Thermo Fisher Scientific, cat. 15140122), and 2.5% Matrigel (Corning Inc., Corning, NY, cat. 354248) for the first three passages. The two PDC lines 997537-175-T-J1-PDC and 415267-285-R-J2-PDC were cultured on uncoated flasks. The 857933-349-R-J2-PDC line was cultured in 6C/Colon 1B media containing advanced DMEM/F-12 (Thermo Fisher Scientific, cat. 12634028), 10 mM HEPES (Thermo Fisher Scientific, cat. 15630080), 1X GlutaMAX supplement (Thermo Fisher Scientific, cat. 35050061), 0.1 mg/mL primocin (InvivoGen, San Diego, CA, cat. ant-pm-2), 10% defined fetal bovine serum, heat inactivated (HyClone Laboratories Inc., Logan, UT, cat. SH30070.03HI), 50% L-WRN conditioned media (ATCC, cat. CRL-3276), 1.25 mM N-Acetyl-L-cysteine (Sigma-Aldrich, cat. A9165), 10 mM nicotinamide (Sigma-Aldrich, cat. N0636), 1X B-27 supplement (Thermo Fisher Scientific, cat. 17504044), 1X N-2 supplement (Thermo Fisher Scientific, cat. […]

[1] = second compound 0.0316 µM, first compound 0.0316 µM
[2] = second compound 0.0316 µM, first compound 0.1 µM
[3] = second compound 0.0316 µM, first compound 0.316 µM
[4] = second compound 0.0316 µM, first compound 1 µM
[5] = second compound 0.0316 µM, first compound 3.16 µM
[6] = second compound 0.0316 µM, first compound 10 µM
[7] = second compound 0.1 µM, first compound 0.0316 µM
[8] = second compound 0.1 µM, first compound 0.1 µM
[9] = second compound 0.1 µM, first compound 0.316 µM
[10] = second compound 0.1 µM, first compound 1 µM
[11] = second compound 0.1 µM, first compound 3.16 µM
[12] = second compound 0.1 µM, first compound 10 µM
[13] = second compound 0.316 µM, first compound 0.0316 µM
[14] = second compound 0.316 µM, first compound 0.1 µM
[15] = second compound 0.316 µM, first compound 0.316 µM
[16] = second compound 0.316 µM, first compound 1 µM
[17] = second compound 0.316 µM, first compound 3.16 µM
[18] = second compound 0.316 µM, first compound 10 µM
[19] = second compound 1 µM, first compound 0.0316 µM
[20] = second compound 1 µM, first compound 0.1 µM
[21] = second compound 1 µM, first compound 0.316 µM
[22] = second compound 1 µM, first compound 1 µM
[23] = second compound 1 µM, first compound 3.16 µM
[24] = second compound 1 µM, first compound 10 µM
[25] = second compound 3.16 µM, first compound 0.0316 µM
[26] = second compound 3.16 µM, first compound 0.1 µM
[27] = second compound 3.16 µM, first compound 0.316 µM
[28] = second compound 3.16 µM, first compound 1 µM
[29] = second compound 3.16 µM, first compound 3.16 µM
[30] = second compound 3.16 µM, first compound 10 µM
[31] = second compound 10 µM, first compound 0.0316 µM
[32] = second compound 10 µM, first compound 0.1 µM
[33] = second compound 10 µM, first compound 0.316 µM
[34] = second compound 10 µM, first compound 1 µM
[35] = second compound 10 µM, first compound 3.16 µM
[36] = second compound 10 µM, first compound 10 µM
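Also: spheroids exposed to compounds for 7 days.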

Structure (SMILES): COc1ccc([C@@H](O)c2cc(-c3ncnc4cc(N5CCOCC5)ccc34)c(F)cc2Cl)nn1 + Nc1ccc(C#CCN(C(=O)Cc2ncc(C(F)(F)F)cc2C(F)(F)F)c2ccc(F)cc2)nn1
- IC50 (second compound 0.0316 µM): 3.7 µM
- IC50 (second compound 0.1 µM): 3.83 µM
- IC50 (second compound 0.316 µM): 4.24 µM
- IC50 (second compound 1 µM): 4.29 µM
- IC50 (second compound 3.16 µM): 3.94 µM
- IC50 (second compound 10 µM): 4.85 µM
- viability, T/C [1]: 83.2%
- viability, T/C [2]: 105%
- viability, T/C [3]: 73.6%
- viability, T/C [4]: 74.9%
- viability, T/C [5]: 52.3%
- viability, T/C [6]: 33.1%
- viability, T/C [7]: 100%
- viability, T/C [8]: 89.6%
- viability, T/C [9]: 84.4%
- viability, T/C [10]: 75.1%
- viability, T/C [11]: 51%
- viability, T/C [12]: 32.9%
- viability, T/C [13]: 98.7%
- viability, T/C [14]: 103%
- viability, T/C [15]: 86%
- viability, T/C [16]: 73%
- viability, T/C [17]: 57.5%
- viability, T/C [18]: 32.8%
- viability, T/C [19]: 92.8%
- viability, T/C [20]: 86.3%
- viability, T/C [21]: 81.5%
- viability, T/C [22]: 69.5%
- viability, T/C [23]: 57.5%
- viability, T/C [24]: 33.3%
- viability, T/C [25]: 91.5%
- viability, T/C [26]: 93.9%
- viability, T/C [27]: 82.9%
- viability, T/C [28]: 67.8%
- viability, T/C [29]: 56%
- viability, T/C [30]: 33.5%
- viability, T/C [31]: 96.7%
- viability, T/C [32]: 89.4%
- viability, T/C [33]: 87.4%
- viability, T/C [34]: 70.6%
- viability, T/C [35]: 59.1%
- viability, T/C [36]: 36.6%

Structure (SMILES): CNCc1ccc(-c2[nH]c3cc(F)cc4c3c2CCNC4=O)cc1 + COC1C(OC(N)=O)C(O)C(Oc2ccc3c(O)c(NC(=O)c4ccc(O)c(CC=C(C)C)c4)c(=O)oc3c2C)OC1(C)C
- IC50 (second compound 0.0316 µM): > 10 µM
- IC50 (second compound 0.1 µM): > 10 µM
- IC50 (second compound 0.316 µM): > 10 µM
- IC50 (second compound 1 µM): > 10 µM
- IC50 (second compound 3.16 µM): > 10 µM
- IC50 (second compound 10 µM): > 10 µM
- viability, T/C [1]: 95.9%
- viability, T/C [2]: 96.7%
- viability, T/C [3]: 95.4%
- viability, T/C [4]: 94.7%
- viability, T/C [5]: 93.2%
- viability, T/C [6]: 75.9%
- viability, T/C [7]: 96.4%
- viability, T/C [8]: 96.5%
- viability, T/C [9]: 93.5%
- viability, T/C [10]: 108%
- viability, T/C [11]: 92.7%
- viability, T/C [12]: 84%
- viability, T/C [13]: 101%
- viability, T/C [14]: 96.4%
- viability, T/C [15]: 93.5%
- viability, T/C [16]: 95.5%
- viability, T/C [17]: 91%
- viability, T/C [18]: 81.2%
- viability, T/C [19]: 102%
- viability, T/C [20]: 91.5%
- viability, T/C [21]: 87.2%
- viability, T/C [22]: 85.4%
- viability, T/C [23]: 92.4%
- viability, T/C [24]: 78.3%
- viability, T/C [25]: 93.3%
- viability, T/C [26]: 88.2%
- viability, T/C [27]: 90.3%
- viability, T/C [28]: 84.2%
- viability, T/C [29]: 89%
- viability, T/C [30]: 82.5%
- viability, T/C [31]: 102%
- viability, T/C [32]: 94.8%
- viability, T/C [33]: 84%
- viability, T/C [34]: 87.7%
- viability, T/C [35]: 88.2%
- viability, T/C [36]: 88.9%
